Tests used:
Test in all cases: Cellular uptake of FITC-labeled peptide
AML = assay type: cell-based, human
Description: (§1) Cells were grown typically in 6 well plates (35 mm dish) to 50-70% confluence. Usually the transfect ion efficiency is somehow cell type specific. 2 mM peptide was diluted 4 times in PBS (2 ul+6 ul) (For FITC peptidedo not dilute the 2 mM stock). For each transfection reaction tube with 100 ul PBS+1 ul diluted peptide was set up. Chariot reagent was diluted 1:10 in ddH2O and for each transfection a 94 ul H2O tube+6 ul diluted Chariot was prepared (No master mix for more than 4 transfections). The 2 tubes were carefully mixed by pipetting up and down and incubated 30 min. at room temperature. Medium was aspirated from the dish (well) and cells were overlay with the mix. 400 ul serum free medium was added and cells were incubated further for 1 h 37 C (cell incubator). 500 ul complete medium (with 10% serum) was finally added. If cells are not very sensitive to serum starvation (cancer cell lines) 5% serum could be used.
(§2) Fluorescent and Confocal microscopy was performed on cells treated with FITC labeled peptides with or without of transfection reagent depending on the cell type. Cells were mounted on cover slips using mounting media with DAPI (Invitrogen) and in some cases cytoskeleton dye (Invitrogen).
(§3) In order to evaluate their cellular uptake and localization, the N terminus of these peptides was labeled with fluorescein isothiocyanate (FITC). Despite the net positive charge of these peptides, their uptake by the cells is cell-type specific. Some cell lines such as HL-60 (an AML cell line) allowed the peptide to enter the cells without any modification or carrier, and some cell lines were not penetrable at all. In order to achieve a similar level of peptide delivery in most cell types, a Chariot Transfection Reagent (Active Motif) was used as a peptide carrier, as directed from the manufacturer. All cell types used in the study described herein were subjected to individual evaluation of the percentage of the cells in which the peptide was delivered as well as the duration of time during which they sustained the labeled peptide in the cells. After Chariot treatment, confocal microscopy studies confirmed uptake of these peptides throughout the cell, including nuclei (as evidenced by DAPI overlay, FIG. 1B).

HL60 = assay type: cell-based, human
Description: as §1, §2, §3

HuH-7 = assay type: cell-based, human
Description: as §1, §2, §3

SNU387 = assay type: cell-based, human
Description: as §1, §2, §3

AML3 = assay type: cell-based
Description: as §1, §2, §3

CD34+ = assay type: cell-based
Description: as §1, §2, §3

HeLa = assay type: cell-based
Description: as §1, §2, §3

KG1a = assay type: cell-based
Description: as §1, §2, §3

MCF7 = assay type: cell-based
Description: as §1, §2, §3

NP4 = assay type: cell-based
Description: as §1, §2, §3

H-MSRRKQAKPQHI-OH [wt peptide, MSRRKQAKPQHI]
peptide uptake (cells with peptide) (AML; no carrier): 0%
peptide uptake (cells with peptide) (AML; with Chariot): 50%
peptide uptake (cells with peptide) (HL60; HL60, no carrier): ~50%
peptide uptake (cells with peptide) (HL60; HL60, with Chariot): 70%
peptide uptake (cells with peptide) (HuH-7; HuH-7, no carrier): 0%
peptide uptake (cells with peptide) (HuH-7; HuH-7, with Chariot): 60%
peptide uptake (cells with peptide) (SNU387; SNU387, no carrier): 0%
peptide uptake (cells with peptide) (SNU387; SNU387, with Chariot): 40%
peptide uptake (cells with peptide) (AML3; AML3, no carrier): ~5%
peptide uptake (cells with peptide) (AML3; AML3, with Chariot): 50%
peptide uptake (cells with peptide) (CD34+; no carrier): 0%
peptide uptake (cells with peptide) (CD34+; with Chariot): 50%
peptide uptake (cells with peptide) (HeLa; no carrier): 0%
peptide uptake (cells with peptide) (HeLa; with Chariot): 80%
peptide uptake (cells with peptide) (KG1a; no carrier): >10%
peptide uptake (cells with peptide) (KG1a; with Chariot): 60%
peptide uptake (cells with peptide) (MCF7; MCF7, no carrier): ~50%
peptide uptake (cells with peptide) (MCF7; MCF7, with Chariot): 70%
peptide uptake (cells with peptide) (NP4; NP4, no carrier): >1%
peptide uptake (cells with peptide) (NP4; NP4, with Chariot): >5%
